The results in this text go back to ChEMBL document CHEMBL1147360, “Conioidines A and B, novel DNA-interacting pyrrolidines from Chamaesaracha conioides” (J Nat Prod, 1993).

Experiment [1] relates to KB. In words: Cytotoxicity against human KB cells after 48 hrs. Type of experiment: functional, cell-based.
The subject of the next experiment is Calf thymus DNA. In words: Binding affinity to calf thymus DNA. Type of experiment: nucleic-acid assay, Bos taurus.
For experiment [2], the system named is KB. In words: Cytotoxicity against human KB cells after 48 hrs in presence of exogenous DNA. Type of experiment: functional, cell-based.

The structures appear in SMILES notation. pKd: −log10 of the molar value. Values after ≈ are worked out from the molar mass of the structure shown.

Take `C/C=C(\C)C(=O)OC(C)CC1CCCN1C(=O)CCCCCCCCC` (stereo not drawn) [CONIOIDINE A]: the IC50 was found to be 0.67 µg/mL (≈ 1.83 µM) with KB [1] and 2.1 µg/mL in the experiment on KB [2]. In the experiment on Calf thymus DNA, this compound had a negative logarithm of the Kd (pKd) of 5.55.

Usually IC50 stands for the concentration that inhibits the measured activity by half. What is called pKd is −log10 of the Kd, conventionally taken in molar units. Lower therefore signals a high Kd.
